Where two headings read alike, the source gives them in different places.
Experiments:
Assay in all cases: Kinase inhibitor library screening, PrestoBlue cell viability, 1 or 10 μM, 72 h
[1] = test system: IGR37-GP cells (Dabrafenib-resistant)
Protocol: (§1) After 72 h of treatment, cell viability was assessed using the PrestoBlue Cell Viability Reagent (ThermoFisher Scientific). Measurements were performed with the CLARIOstar Monochromator microplate reader (BMG Labtech).
(§2) Kinase inhibitor library screening. […] Each cell line was treated in its sensitive form (parental), and also as 2 resistant derivatives, which were made resistant to either Vemurafenib (XP) or Dabrafenib (GP). Drugs were added at 2 different concentrations, 1 and 10 μM, for 72 h and cell viability was assessed using the PrestoBlue Cell Viability assay. Results are depicted as % viability compared to untreated cells. Each cell line was analyzed at least in duplicate. […] (XLSX 95 kb)

[2] = test system: A375-XP cells (Vemurafenib-resistant)
Protocol: as §1, §2

A375 cells (parental) = test system: A375 cells (parental)
Protocol: as §1, §2

[3] = test system: IGR37-XP cells (Vemurafenib-resistant)
Protocol: as §1, §2

[4] = test system: A375-GP cells (Dabrafenib-resistant)
Protocol: as §1, §2

IGR37 cells (parental) = test system: IGR37 cells (parental)
Protocol: as §1, §2

[5] = test system: 501Mel-GP cells (Dabrafenib-resistant)
Protocol: as §1, §2

[6] = test system: 501Mel-XP cells (Vemurafenib-resistant)
Protocol: as §1, §2

501Mel cells (parental) = details: 501Mel Parental, 72 h, in %
Protocol: as §1, §2

[7] = IGR37 Parental, 1μΜ, 72 h, in %
[8] = IGR37 Parental, 10μΜ, 72 h, in %

Question: With C[C@@H]1CCN(C(=O)CC#N)C[C@@H]1N(C)c1ncnc2[nH]ccc12 [Tofacitinib (CP-690550, Tasocitinib)] as the compound, how does the cell viability, IGR37 GP, 10μΜ ([1]; IGR37 GP, 10μΜ, 72 h) read?
Answer: 95.3%

Question: What about the “cell viability, IGR37 GP, 1μΜ” value ([1]; IGR37 GP, 1μΜ, 72 h, in %) of the same compound?
Answer: 97.9

Question: What about the “cell viability, A375 XP, 1μΜ” value ([2]; A375 XP, 1μΜ, 72 h, in %) of the same compound?
Answer: 103.8

Question: And the “cell viability, A375 XP, 10μΜ” value ([2]; A375 XP, 10μΜ, 72 h, in %)?
Answer: 103.6

Question: What about the “cell viability, A375 Parental, 1μΜ” value (A375 cells (parental); A375 Parental, 1μΜ, 72 h, in %) of the same compound?
Answer: 104.5

Question: What about the “cell viability, A375 Parental, 10μΜ” value (A375 cells (parental); A375 Parental, 10μΜ, 72 h, in %) of the same compound?
Answer: 97.3

Question: And the cell viability, IGR37 XP, 10μΜ ([3]; IGR37 XP, 10μΜ, 72 h)?
Answer: 71.2%

Question: What about the “cell viability, IGR37 XP, 1μΜ” value ([3]; IGR37 XP, 1μΜ, 72 h, in %) of the same compound?
Answer: 96.7

Question: And the “cell viability, A375 GP, 1μΜ” value ([4]; A375 GP, 1μΜ, 72 h, in %)?
Answer: 103.9

Question: What about the “cell viability, A375 GP, 10μΜ” value ([4]; A375 GP, 10μΜ, 72 h, in %) of the same compound?
Answer: 97.7

Question: What about the “cell viability, IGR37 Parental, 1μΜ” value (IGR37 cells (parental); [7]) of the same compound?
Answer: 108.6

Question: What about the “cell viability, IGR37 Parental, 10μΜ” value (IGR37 cells (parental); [8]) of the same compound?
Answer: 104.5

Question: What about the “cell viability, 501Mel GP, 1μΜ” value ([5]; 501Mel GP, 1μΜ, 72 h, in %) of the same compound?
Answer: 104.8

Question: What about the “cell viability, 501Mel GP, 10μΜ” value ([5]; 501Mel GP, 10μΜ, 72 h, in %) of the same compound?
Answer: 94.8

Question: And the “cell viability, 501Mel XP, 1μΜ” value ([6]; 501Mel XP, 1μΜ, 72 h, in %)?
Answer: 94.3

Question: What about the “cell viability, 501Mel XP, 10μΜ” value ([6]; 501Mel XP, 10μΜ, 72 h, in %) of the same compound?
Answer: 92.6

Question: How did the Cell viability in kinase inhibitor library screening, IGR37 GP, 10μΜ ([1]; IGR37 GP, 10μΜ, 72 h) turn out when O=C(O)c1ccc2c(c1)nc(Nc1cccc(Cl)c1)c1ccncc12 [cx-4945 (Silmitasertib)] was run?
Answer: 55.9%

Question: And the “Cell viability in kinase inhibitor library screening, IGR37 GP, 1μΜ” value ([1]; IGR37 GP, 1μΜ, 72 h, in %)?
Answer: 94.1

Question: And the Cell viability in kinase inhibitor library screening, IGR37 XP, 10μΜ ([3]; IGR37 XP, 10μΜ, 72 h)?
Answer: 23.6%

Question: What about the “Cell viability in kinase inhibitor library screening, IGR37 XP, 1μΜ” value ([3]; IGR37 XP, 1μΜ, 72 h, in %) of the same compound?
Answer: 96.8

Question: What about the “Cell viability in kinase inhibitor library screening, 501Mel Parental, 1μΜ” value (501Mel cells (parental)) of the same compound?
Answer: 96.6

Question: And the “Cell viability in kinase inhibitor library screening, 501Mel Parental, 10μΜ” value (501Mel cells (parental))?
Answer: 52.6

Question: And the “Cell viability in kinase inhibitor library screening, A375 GP, 1μΜ” value ([4]; A375 GP, 1μΜ, 72 h)?
Answer: 93.2

Question: And the “Cell viability in kinase inhibitor library screening, IGR37 Parental, 10μΜ” value (IGR37 cells (parental); [8])?
Answer: 86.7

Question: And the “Cell viability in kinase inhibitor library screening, 501Mel GP, 1μΜ” value ([5]; 501Mel GP, 1μΜ, 72 h, in %)?
Answer: 93.9

Question: What about the “Cell viability in kinase inhibitor library screening, 501Mel GP, 10μΜ” value ([5]; 501Mel GP, 10μΜ, 72 h, in %) of the same compound?
Answer: 31.8

Question: And the “Cell viability in kinase inhibitor library screening, 501Mel XP, 1μΜ” value ([6]; 501Mel XP, 1μΜ, 72 h, in %)?
Answer: 88.6

Question: Which results are given for Cc1ccccc1-n1c(Cn2ncc3c(N)ncnc32)nc2cccc(C)c2c1=O [PIK-293]?
Answer: Cell viability in kinase inhibitor library screening, A375 XP, 1μΜ ([2]; A375 XP, 1μΜ, 72 h): 106.1; Cell viability in kinase inhibitor library screening, A375 XP, 10μΜ ([2]; A375 XP, 10μΜ, 72 h): 104.4; Cell viability in kinase inhibitor library screening, IGR37 XP, 10μΜ ([3]; IGR37 XP, 10μΜ, 72 h): 77.6%; Cell viability in kinase inhibitor library screening, IGR37 XP, 1μΜ ([3]; IGR37 XP, 1μΜ, 72 h, in %): 103.2; Cell viability in kinase inhibitor library screening, 501Mel Parental, 10μΜ (501Mel cells (parental)): 99.9; Cell viability in kinase inhibitor library screening, A375 GP, 1μΜ ([4]; A375 GP, 1μΜ, 72 h): 97.7; Cell viability in kinase inhibitor library screening, A375 GP, 10μΜ ([4]; A375 GP, 10μΜ, 72 h): 99.7; Cell viability in kinase inhibitor library screening, IGR37 Parental, 1μΜ (IGR37 cells (parental); [7]): 105.2; Cell viability in kinase inhibitor library screening, IGR37 Parental, 10μΜ (IGR37 cells (parental); [8]): 107.6; Cell viability in kinase inhibitor library screening, 501Mel GP, 10μΜ ([5]; 501Mel GP, 10μΜ, 72 h, in %): 90.9; Cell viability in kinase inhibitor library screening, 501Mel XP, 1μΜ ([6]; 501Mel XP, 1μΜ, 72 h, in %): 112.1; Cell viability in kinase inhibitor library screening, 501Mel XP, 10μΜ ([6]; 501Mel XP, 10μΜ, 72 h, in %): 91.5

Question: With O=c1c(O)c(-c2ccc(O)c(O)c2)oc2cc(O)cc(O)c12 [Quercetin (Sophoretin)] as the compound, how does the Cell viability in kinase inhibitor library screening, IGR37 GP, 10μΜ ([1]; IGR37 GP, 10μΜ, 72 h) read?
Answer: 78.8%

Question: And the “Cell viability in kinase inhibitor library screening, A375 XP, 10μΜ” value ([2]; A375 XP, 10μΜ, 72 h)?
Answer: 96.9

Question: What about the “Cell viability in kinase inhibitor library screening, A375 Parental, 10μΜ” value (A375 cells (parental); A375 Parental, 10μΜ, 72 h) of the same compound?
Answer: 94.2

Question: What about the “Cell viability in kinase inhibitor library screening, A375 Parental, 1μΜ” value (A375 cells (parental); A375 Parental, 1μΜ, 72 h) of the same compound?
Answer: 97.7

Question: What about the Cell viability in kinase inhibitor library screening, IGR37 XP, 10μΜ ([3]; IGR37 XP, 10μΜ, 72 h) of the same compound?
Answer: 58.7%

Question: What about the “Cell viability in kinase inhibitor library screening, IGR37 XP, 1μΜ” value ([3]; IGR37 XP, 1μΜ, 72 h, in %) of the same compound?
Answer: 99.1

Question: What about the “Cell viability in kinase inhibitor library screening, 501Mel Parental, 1μΜ” value (501Mel cells (parental)) of the same compound?
Answer: 99.7

Question: What about the “Cell viability in kinase inhibitor library screening, 501Mel Parental, 10μΜ” value (501Mel cells (parental)) of the same compound?
Answer: 94.0

Question: What about the “Cell viability in kinase inhibitor library screening, A375 GP, 10μΜ” value ([4]; A375 GP, 10μΜ, 72 h) of the same compound?
Answer: 87.9

Question: What about the “Cell viability in kinase inhibitor library screening, 501Mel GP, 1μΜ” value ([5]; 501Mel GP, 1μΜ, 72 h, in %) of the same compound?
Answer: 98.5

Question: And the “Cell viability in kinase inhibitor library screening, 501Mel GP, 10μΜ” value ([5]; 501Mel GP, 10μΜ, 72 h, in %)?
Answer: 87.4

Question: What about the “Cell viability in kinase inhibitor library screening, 501Mel XP, 1μΜ” value ([6]; 501Mel XP, 1μΜ, 72 h, in %) of the same compound?
Answer: 90.4

Question: What about the “Cell viability in kinase inhibitor library screening, 501Mel XP, 10μΜ” value ([6]; 501Mel XP, 10μΜ, 72 h, in %) of the same compound?
Answer: 65.0

Question: Which “cell viability, IGR37 GP, 1μΜ” value [1] does the source give for FC(F)(F)c1ccc(/C=C/c2nc(COc3ccc(CCCCn4ccnn4)cc3)co2)cc1 [Mubritinib (TAK 165)] here?
Answer: 99.8

Question: And the “cell viability, IGR37 GP, 10μΜ” value [1]?
Answer: 95.3

Question: And the “cell viability, A375 XP, 1μΜ” value [2]?
Answer: 94.9

Question: What about the “cell viability, A375 XP, 10μΜ” value [2] of the same compound?
Answer: 98.4

Question: And the “cell viability, A375 Parental, 1μΜ” value (A375 cells (parental))?
Answer: 94.8

Question: What about the “cell viability, A375 Parental, 10μΜ” value (A375 cells (parental)) of the same compound?
Answer: 91.7

Question: What about the “cell viability, IGR37 XP, 1μΜ” value [3] of the same compound?
Answer: 98.3

Question: And the “cell viability, IGR37 XP, 10μΜ” value [3]?
Answer: 81.5

Question: And the “cell viability, A375 GP, 1μΜ” value [4]?
Answer: 93.7

Question: And the “cell viability, A375 GP, 10μΜ” value [4]?
Answer: 94.7

Question: And the “cell viability, IGR37 Parental, 1μΜ” value (IGR37 cells (parental))?
Answer: 98.7

Question: What about the “cell viability, IGR37 Parental, 10μΜ” value (IGR37 cells (parental)) of the same compound?
Answer: 100.1

Question: What about the “cell viability, 501Mel GP, 10μΜ” value [5] of the same compound?
Answer: 95.8

Question: What about the “cell viability, 501Mel XP, 1μΜ” value [6] of the same compound?
Answer: 92.8

Question: What about the “cell viability, 501Mel XP, 10μΜ” value [6] of the same compound?
Answer: 81.6

From article PMC6364417, “Kinase inhibitor library screening identifies synergistic drug combinations effective in sensitive and resistant melanoma cells” (Journal of Experimental & Clinical Cancer Research : CR, 2019)
